{"source": "patent US8426367B2", "about": "“Peptides specific for human blood outgrowth endothelial cells” (The University of North Carolina at Chapel Hill, priority 2007, dated 2013)", "key": {"[1]": {"test_system": "panel of other cell types", "test": "Binding specificity: biopanning of HBOEC-selected phage clones on a panel of other cell types", "set-up": "species or system human", "settings": "1.10^11 phage, 1 hour at 4° C., FIG. 3", "procedure": "Lymphocytes and neutrophils were obtained from the same preparation. Lymphocytes were collected from the supernatant of the cultured buffy coat mononuclear cells that were allowed to adhere for 48 hours. The cell concentration was adjusted to 1.10^5 cells per ml.\nNeutrophils were collected from the lower portion of the density gradient preparation. The upper layers were removed and processed as described above. The neutrophil-rich Histopaque layer was transferred to a centrifuge tube and diluted in fresh RPMI to wash the cells free of Histopaque. The suspension was centrifuged at 700×g for 15 min at room temperature. The supernatant was aspirated and the pellet resuspended in 10 ml of RPMI and centrifuged at 700×g for 10 min at room temperature. Contaminating red cells were lysed by quickly re-suspending the pellet in sterile water at 4° C. After 30 sec an equal volume of 1.8% saline solution was added in order to return the solution to isotonicity. The suspension was then centrifuged for 10 min at 250×g at 4° C. The cell lysis step was repeated. The final pellet was re-suspended and concentration adjusted to 1.10^5 cells per ml.\n(§1) HUVEC were from the American Type Culture Collection (ATCC, Manassas, Va.). Passages 4 to 8 were used in this study. HUVEC were cultured in EGM-MV medium (Cambrex) at 37° C. in an incubator with humid atmosphere and 5% CO2.\nPeripheral blood human HL-60 promyelocytic cells from the American Type Culture Collection (ATCC) were cultured in RPMI 1640 medium supplemented with 20% fetal bovine serum.\nThe specificity of HBOEC-selected phage clones was determined by biopanning on a panel of other cell types. The biopanning procedure was carried as described above with the exception of including the pre-clearing incubation step."}, "[2]": {"test_system": "human blood outgrowth endothelial cells (HBOEC)", "test": "Homogeneous phage recovery (relative binding) on HBOEC", "settings": "for concentration dependence of homogeneous recovery (binding to HBOEC): 1.10^9, 1.10^10, 1.10^11 pfu, 1 h at 4° C.; for concentration dependence of homogeneous recovery (binding to HBOEC) / relative recovery / affinity-avidity among the four selected phage clones: FIG. 1B; for relative recovery / affinity-avidity among the four selected phage clones: four clones with different consensus motifs", "procedure": "Cells at 80% confluence were detached by treating with 0.05% trypsin-EDTA, washed once with EGM-2 medium and resuspended in EGM-2 containing 1% BSA at 1.10^5 cells per ml. In the pre-clearing step, 1 ml of HUVEC suspension at 1.10^5 cells per ml were incubated with 10 μl of PhD-12 peptide phage display system (New England Biolabs, Beverly, Mass.) within 1.5 ml Eppendorf tube for 2 hours at 4° C.; the mixture was then centrifuged. In the screening step, the unbound phage pool remaining in the supernatant was transferred to a fresh tube and incubated with 1 ml of HBOEC at 1.10^5 cells per ml. After 1 hour incubation at 4° C., the cell-phage complexes were separated by centrifugation. Following five intensive washes with TBS-0.5% Tween-20 buffer the bound phage was non-specifically eluted with 0.2 M Glycine-HCl buffer (pH 2.2) for 10 min. The eluate was immediately neutralized by 1M Tris.HCl buffer (pH 9.0). An aliquot of the eluted phage was used for determining titer by plaque assay. The rest of the phage eluate was amplified in mid-log phase E. coli ER2738 (New England Biolabs), and purified by precipitation with polyethylene glycol. An aliquot of the amplified phage was subsequently re-applied to newly trypsinized cells for a total of three biopanning rounds and two amplification steps.\nOnce isolated individual phage clones were subjected to evaluation of relative binding. High titer stocks of homogeneous phage were generated. Serially diluted phage (1.10^9 pfu, 1.10^10 pfu, and 1.10^11 pfu) were incubated with HBOEC (1.10^5 cells) for 1 h at 4° C. and then subjected to the same wash protocol used for the selection experiments. In parallel the same procedure was carried in a blocked Eppendorf tube without HBOEC to test for non specific binding for each selected sequence to the plastic container. Binding ratio is defined as recovery of phage bound to the target cells normalized to the recovery of phage non-specifically bound to the plastic."}, "[3]": {"test_system": "HUVEC", "test": "Cell binding assay: HUVEC attachment to peptide-modified substrates", "type": "cell-based, human", "settings": "compared to RGE negative controls; FIG. 8D", "procedure": "as §1\nPeptide sequences were immobilized to methacrylic terpolymers via one step chain transfer controlled free radical polymerization as described by Fussell and Cooper (Fussell 2004a and Fussell 2004b). The monomers used in the reactions were n-hexyl methacrylate (HMA) (Alfa Aesar, Ward Hill, Mass.), methyl methacrylate (MMA) (ACROS Organics, Pittsburgh, Pa.), and methacrylic acid (MAA) (ACROS Organics, Pittsburgh, Pa.), with 2,2-azobisisobutyronitrile (AIBN) (Aldrich Chemical, Milwaukee, Wis.) as the initiator. The molar ratio of the monomers in the reaction mixture was HMA:MMA:MAA—20:78:2. The peptides were added with the monomers after the solvent was purged with argon. The reaction temperature for the polymerization was 55-60° C. and reactions were carried out overnight.\nPeptide grafted materials were coated on round microscope cover glass slides. Glass slides were sterilized by immersion in 70% ethanol. […] Digital images were taken from 15 random fields per sample and quantified by computer assisted analysis."}}, "data": [{"substance": "MPTLTRAPHTAC (Human outgrowth endothelial cell-binding peptides isolated from phage library) [SEQ ID NO:37]", "values": [{"measurement": "recovery on cell types other than the target cells", "setting": "[1]", "value": "No significant recovery"}, {"measurement": "concentration dependence of homogeneous recovery (binding to HBOEC)", "setting": "[2]", "value": "bind HBOEC over a range of concentrations in a dose-dependent manner"}, {"measurement": "relative recovery / affinity-avidity among the four selected phage clones", "setting": "[2]", "value": "lowest affinity/avidity"}]}, {"substance": "SPPPSNAGSHHV (Human outgrowth endothelial cell-binding peptides isolated from phage library) [SEQ ID NO:32]", "values": [{"measurement": "recovery on cell types other than the target cells", "setting": "[1]", "value": "No significant recovery"}, {"measurement": "concentration dependence of homogeneous recovery (binding to HBOEC)", "setting": "[2]", "value": "bind HBOEC over a range of concentrations in a dose-dependent manner"}]}, {"substance": "SVPPRYTLTLQW (Human outgrowth endothelial cell-binding peptides isolated from phage library) [SEQ ID NO:7]", "values": [{"measurement": "recovery on cell types other than the target cells", "setting": "[1]", "value": "No significant recovery"}, {"measurement": "concentration dependence of homogeneous recovery (binding to HBOEC)", "setting": "[2]", "value": "bind HBOEC over a range of concentrations in a dose-dependent manner"}]}, {"substance": "TPSLEQRTVYAK (Human outgrowth endothelial cell-binding peptides isolated from phage library) [SEQ ID NO:17]", "values": [{"measurement": "recovery on cell types other than the target cells", "setting": "[1]", "value": "No significant recovery"}, {"measurement": "concentration dependence of homogeneous recovery (binding to HBOEC)", "setting": "[2]", "value": "bind HBOEC over a range of concentrations in a dose-dependent manner"}, {"measurement": "binding ratio (recovery of phage bound to target cells normalized to phage non-specifically bound to plastic)", "setting": "[2]; 1.10^11 pfu homogeneous phage, 1.10^5 HBOEC, 1 hour at 4° C., FIG. 2", "value": "43±20"}, {"measurement": "relative recovery among phage bearing the TP(S/T/G) motif", "setting": "[2]; 1.10^11 pfu, FIG. 2", "value": "highest recovery"}, {"measurement": "relative recovery / affinity-avidity among the four selected phage clones", "setting": "[2]", "value": "highest recovery"}]}, {"substance": "fibronectin", "values": [{"measurement": "HUVEC attachment", "setting": "[3]", "value": "statistically significant"}]}]}
